Measurements published in EP3095787A1, “[…] ACTIVE COMPOUNDS AS DAG-LIPASE INHIBITORS” (Universiteit Leiden, priority 2015, dated 2016).

How the values were obtained:
[1] = biological target: T1, hDAGL-α (Homo sapiens, UniProt Q9Y4D2); experiment: Biochemical hDAGL-α activity assay (PNP-butyrate hydrolysis, 96 well plate); parameters: expressed in transfected cells; host or cells: HEK293T (transient), membrane fraction; conditions: PNP-butyrate 0.3 mM, membranes of HEK293T cells transfected with hDAGL-α
T1 sequence (Q9Y4D2 1-1042): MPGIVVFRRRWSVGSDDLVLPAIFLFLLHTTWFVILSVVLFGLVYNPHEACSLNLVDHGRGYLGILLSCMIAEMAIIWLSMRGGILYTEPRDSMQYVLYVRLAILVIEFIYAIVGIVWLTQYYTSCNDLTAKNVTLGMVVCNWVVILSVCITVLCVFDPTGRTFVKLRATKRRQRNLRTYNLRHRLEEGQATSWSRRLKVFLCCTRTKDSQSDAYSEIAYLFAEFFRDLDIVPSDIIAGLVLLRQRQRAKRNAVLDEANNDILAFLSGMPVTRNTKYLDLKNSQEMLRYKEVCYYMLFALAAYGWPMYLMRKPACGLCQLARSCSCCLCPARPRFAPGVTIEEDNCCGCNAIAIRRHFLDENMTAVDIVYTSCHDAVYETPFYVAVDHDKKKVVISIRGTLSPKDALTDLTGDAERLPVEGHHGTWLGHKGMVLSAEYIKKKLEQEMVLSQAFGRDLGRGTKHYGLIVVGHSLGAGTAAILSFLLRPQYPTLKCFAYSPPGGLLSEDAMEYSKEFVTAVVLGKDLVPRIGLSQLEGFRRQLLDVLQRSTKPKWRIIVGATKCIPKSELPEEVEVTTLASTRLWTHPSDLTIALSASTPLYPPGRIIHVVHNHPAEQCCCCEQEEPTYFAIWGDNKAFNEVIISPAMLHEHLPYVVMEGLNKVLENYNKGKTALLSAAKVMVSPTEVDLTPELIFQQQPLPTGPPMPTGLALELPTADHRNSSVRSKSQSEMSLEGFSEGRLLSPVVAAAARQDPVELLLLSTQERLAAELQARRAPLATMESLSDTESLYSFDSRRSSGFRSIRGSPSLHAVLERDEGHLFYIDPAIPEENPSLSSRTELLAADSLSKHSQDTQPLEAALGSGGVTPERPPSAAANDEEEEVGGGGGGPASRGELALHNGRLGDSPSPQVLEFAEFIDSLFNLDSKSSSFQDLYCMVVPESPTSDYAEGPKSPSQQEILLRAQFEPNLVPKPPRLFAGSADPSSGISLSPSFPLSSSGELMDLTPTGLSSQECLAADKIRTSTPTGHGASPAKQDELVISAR
Procedure: The biochemical hDAGL-α activity assay is based on the hydrolysis of para-nitrophenylbutyrate (PNP-butyrate) by membrane preparations from HEK293T cells transiently transfected with hDAGL-α. 200 µL reactions were performed in flat bottom Greiner 96-wells plates in a 50 mM pH 7.2 Hepes buffer. Membrane protein fractions from HEK293T cells transiently transfected with hDAGL-α (0.05 µg/µL final concentration) were used as hDAGL-α source. Compounds to be tested were introduced in 5 µL DMSO. The mixtures were incubated for 30 minutes before 5.0 µL 12 mM PNP-butyrate (final concentration 0.3 mM) in DMSO was added (final DMSO concentration 5.0%). Kinetics were followed immediately after addition of PNP-butyrate on a plate reader (TECAN GENios® microplate reader), by measuring the OD420 every 60 seconds, for 20 minutes at 37°C. The slope of the linear region from 5-15 minutes was determined, and all experiments were performed at N = 2, n = 2 for experimental measurements and N = 2, n = 4 for controls.
Data analysis: Z'-factor of each plate was determined for the validation of each experiment, using the following formula Z' = 1-3(σpc + σnc)/(µpc - µnc). The slope from 5-15 minutes of the positive control (pc: hDAGL-α, DMSO), and the negative control (nc: Mock, DMSO) was used. Plates were accepted for further analysis when Z' > 0.6. Kinetic measurements were corrected for the average absorption of the negative control (mock, DMSO). The slope of the linear region from 5-15 minutes was determined. The average, standard deviation (SD) and standard error of mean (SEM) were calculated and normalized to the corrected positive control. Data was exported to Graphpad Prism 5.0 for the calculation of the pIC50 using a nonlinear dose-response analysis.

[2] = biological target: T1, hDAGL-α; experiment: DAGL-α natural substrate assay (SAG hydrolysis, glycerol based real-time fluorescence assay); type: biochemical; parameters: expressed in transfected cells; host or cells: HEK293T (transient), membrane preparation; conditions: for pIC50: n=4
Description: To confirm that compound 25 was also able to block conversion of the natural substrate 1-stearoyl-2-arachidonoyl-sn-glycerol of DAGL-α to the endocannabinoid 2-AG, the inventors employed a real-time, fluorescence-based assay. The DAGL-α natural substrate assay is based on the production of 2-AG from 1-stearoyl-2-arachidonoyl-sn-glycerol (SAG) hydrolysis by DAGL-α-overexpressing membrane preparations from transiently transfected HEK293T cells. The 2-AG production is coupled to the oxidation of commercially available Amplifu™Red via a multi-enzyme cascade, resulting in a fluorescent signal from the dye resorufin.
Standard assays were performed in HEMNB buffer (50 mM HEPES pH 7.4, 1 mM EDTA, 5 mM MgCl2, 100 mM NaCl, 0.5% (w/v) BSA) in black, flat clear-bottom 96-wells plates (Greiner). Final protein concentration of membrane preparations from DAGL-α-overexpressing HEK293T cells was 50 µg/mL (10 µg per well). Inhibitors were added from 40x concentrated DMSO stocks. A substrate solution of 1-stearoyl-2-arachidonoyl-sn-glycerol was prepared just prior to use. The SAG stock solution (10 mg/mL in methyl acetate) was dried under argon and subsequently dissolved in 50 mM HEPES buffer (pH 7.0) containing 0.75% (w/v) Triton X-100. The substrate solution was mixed to form an emulsion and stored on ice until use.
DAGL-α-overexpressing membranes were incubated with inhibitor for 20 min. Subsequently, assay mix containing glycerol kinase (GK), glycerol-3-phosphate oxidase (GPO), horseradish peroxidase (HRP), adenosine triphosphate (ATP), monoacylglycerol lipase (MAGL), Amplifu™Red and 1-stearoyl-2-arachidonoyl-sn-glycerol (SAG) was added and fluorescence was measured in 5 min intervals for 60 min on a GENios microplate reader (Tecan, Giessen, The Netherlands).
Standard assay concentrations: 0.2 U/mL GK, GPO and HRP, 0.125 mM ATP, 5 µg/mL MAGL-overexpressing membranes, 10 µM Amplifu™Red, 100 or 150 µM SAG, 5% DMSO, 0.0075% (w/v) Triton X-100 in a total volume of 200 µL.

[3] = natural substrate 1-stearoyl-2-arachidonoyl-sn-glycerol

IC50 ([1]; read-out: DAGL-α Activity assay pIC50 (converted)) | pIC50 ([2]; glycerol based natural substrate assay, figure legend prints nM, unit of the source corrected) | pIC50 [2, 3] | fold increase compared to compound 1 ([2]; natural substrate assay) | DAGL-α Activity assay pIC50 [1] | SMILES
3.02 nM | 7.9 ± 0.08 | 7.9 ± 0.08 | 40 fold | – | Cc1ccc(-c2cnc3nc(C(=O)CCCCCc4ccccc4)oc3c2)cc1 [Compound 25, 1-(6-(p-Tolyl)oxazolo[4,5-b]pyridin-2-yl)-6-phenylhexan-1-one]
– | – | 6.3 ± 0.1 | – | 7.43 | O=C(CCCCCc1ccccc1)c1nc2ncccc2o1 [Compound 1, 1-(Oxazolo[4,5-b]pyridin-2-yl)-6-phenylhexan-1-one, reference compound]
